Test results taken from BindingDB's records for doi:10.1016/j.bmcl.2005.04.021 (Novartis Institutes For Biomedical Research, 2005).

Target: T1, Adenosine receptor A2b (Homo sapiens, UniProt P29275)
T1 sequence (P29275 whole entry): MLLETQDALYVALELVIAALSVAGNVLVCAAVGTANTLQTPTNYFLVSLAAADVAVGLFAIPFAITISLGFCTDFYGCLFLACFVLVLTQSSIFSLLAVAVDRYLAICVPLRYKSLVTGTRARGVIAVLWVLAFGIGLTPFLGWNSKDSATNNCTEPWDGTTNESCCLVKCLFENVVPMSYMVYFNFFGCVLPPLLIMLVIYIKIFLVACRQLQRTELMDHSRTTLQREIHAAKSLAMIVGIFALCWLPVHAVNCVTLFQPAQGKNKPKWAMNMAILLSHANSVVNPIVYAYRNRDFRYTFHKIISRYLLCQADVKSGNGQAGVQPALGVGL
Assay: Inhibition of luciferase production elicited by NECA by compound in CHO cells transfected with human adenosine A2b receptor and a luciferase expressing reporter plasmid in a reporter gene assay

| SMILES | KB [nM] |
| --- | --- |
| N#Cc1cccc(-c2nc(Nc3ccncc3)sc2-n2cncn2)c1 [3-[2-(Pyridin-4-ylamino)-5-[1,2,4]triazol-1-yl-thiazol-4-yl]-benzonitrile] | 62 |
| N#Cc1cccc(-c2nc(Nc3cccnc3)sc2-n2ccnc2)c1 [3-[5-Imidazol-1-yl-2-(pyridin-3-ylamino)-thiazol-4-yl]-benzonitrile] | 92 |
| N#Cc1cccc(-c2nc(Nc3ccccn3)sc2-n2cncn2)c1 [3-[2-(Pyridin-2-ylamino)-5-[1,2,4]triazol-1-yl-thiazol-4-yl]-benzonitrile] | 53 |
| N#Cc1cccc(-c2nc(Nc3cccnc3)sc2-n2cncn2)c1 [3-[2-(Pyridin-3-ylamino)-5-[1,2,4]triazol-1-yl-thiazol-4-yl]-benzonitrile] | 86 |
